Legend:
[1] = test system: adipocyte-differentiated human adipose stem cells; assay: Effect of GSK3B inhibitor on dexamethasone-induced circadian gene expression profiles of human ASCs (qRT-PCR); assay type: cell-based; conditions: 30 μM in serum-free media after 2 hr 1 μM dexamethasone, FIG. 12
Protocol: Treatment of human adipose derived stem cells with dexamethasone was shown above to induce a circadian rhythm in vitro, and studies were conducted to see if this induction would be blocked by the addition of a glycogen synthase kinase 3 beta inhibitor. Confluent cultures of human ASCs were induced by exposure to 1 micromolar dexamethasone for a period of 2 hr. The medium was changed to either serum-free media (SF), or serum-free media with 30 μM SB415286 (SB415, an inhibitor of glycogen synthase kinase 3 beta). Individual cultures were harvested for total RNA at the indicated times and used for qRT-PCR analysis of gene expression of Bmal1, Per3, and Rev-erbα, and normalized relative to the corresponding Cyclophilin B levels.

bipolar patients = conditions: A. Fagiolini et al., 2002, 2003; cited from earlier work
[2] = test system: undifferentiated human ASCs; assay: Circadian gene expression induction in undifferentiated human ASCs (qRT-PCR); assay type: cell-based; conditions: for Rev-erbα and Rev-erbβ expression zenith, time: three donors
Source text: Human Adipose-Derived Stem Cell (ASCs) Isolation and Expansion. All protocols were reviewed and approved by the Pennington Biomedical Research Center Institutional Research Board (IRB; Baton Rouge, La.) prior to the study. Liposuction aspirates from subcutaneous adipose tissue sites were obtained from female subjects undergoing elective procedures in local plastic surgical offices. Tissues were washed 3-4 times with phosphate-buffered saline (PBS) and suspended in an equal volume of PBS supplemented with 1% bovine serum and 0.1% collagenase type I (Worthington Biochemical Corporation, Lakewood, N.J.) prewarmed to 37° C. The tissue was then placed in a shaking water bath at 37° C. with continuous agitation for 60 min and centrifuged for 5 min at 300-500×g at room temperature. The supernatant, containing mature adipocytes, was aspirated. The pellet was identified as the stromal vascular fraction (SVF). Portions of the SVF were resuspended in cryopreservation medium (10% dimethylsulfoxide, 10% DMEM/F 12 Ham's, 80% fetal bovine serum), frozen at −80° C. in an ethanol-jacketed, closed container, and subsequently stored in liquid nitrogen. Portions of the SVF were used in colony forming unit assays (see below). The remaining cells of the SVF were suspended and plated immediately in T225 flasks in stromal medium (DMEM/F 12 Ham's, 10% fetal bovine serum (Hyclone, Logan, Utah), 100 U penicillin/100 μg streptomycin/0.25 μg Fungizone) at a density of 0.156 ml of tissue digest/sq cm of surface area for expansion and culture. This initial passage of the primary cell culture was referred to as “Passage 0” (P0). […] The cells were passaged by trypsin (0.05%) digestion and plated at a density of 5,000 cells/cm^2 (“Passage 1”). Cell viability and numbers at the time of passage were determined by trypan blue exclusion and hemacytometer cell counts. Cells were passaged repeatedly after achieving a density of 75-90% (approximately 6 days in culture) until Passage 2.
Circadian Induction: The medium was removed from confluent cultures of undifferentiated or adipocyte-differentiated human ASCs in 6 well plates and replaced with DMEM/Ham's F12 medium and 100 U penicillin/100 μg streptomycin/0.25 μg Fungizone alone or supplemented with one of the following: 30% FBS, 1 μM dexamethasone, or 5 μM rosiglitazone. The ASCs were exposed to the inductive agents for 2 hr. A single plate under each condition was harvested for total RNA after 1 hr of induction. After 2 hr, the medium in the remaining plates was replaced with serum free DMEM/Ham's F12 medium and 100 U penicillin/100 μg streptomycin/0.25 μg Fungizone alone.
Quantitative Real-time RT-PCR (qRT-PCR) for Human ASCs: Total RNA was purified from the ASCs as described above for mouse tissues using TriReagent (Molecular Research Center) according to the manufacturer's specifications. Approximately 2 μg of total RNA was reverse transcribed using Moloney Murine Leukemia Virus Reverse Transcriptase (MMLV-RT; Promega), with Oligo dT at 42° C. for 1 hr in a 20 μL reaction. Primers for genes of interest (listed in Table 2) were identified using Primer Express software (Applied Biosystems). All primers were based on the sequence of the corresponding human mRNA and were designed to amplify across at least one exon/intron junction. qRT-PCR was performed on diluted cDNA samples with SYBR® Green PCR Master Mix (Applied Biosystems) using the 7900 Real Time PCR system (Applied Biosystems) under universal cycling conditions (95° C. for 10 min; 40 cycles of 95° C. for 15 sec; then 60° C. for 1 min). All results were normalized relative to a Cyclophilin B expression control.
Periodicity Analysis: Periodicity of the circadian data obtained by qRT-PCR was tested with Time Series Analysis-Single Cosinor v. 6.0 software (Expert Soft Technologie). […] Model was also tested for validity at the 0.950 probability level (ANOVA).

[3] = test system: adipocyte-differentiated human ASCs; assay: Circadian gene expression induction in adipocyte-differentiated human ASCs (qRT-PCR); assay type: cell-based
Source text: Human Adipose-Derived Stem Cell (ASCs) Isolation and Expansion. All protocols were reviewed and approved by the Pennington Biomedical Research Center Institutional Research Board (IRB; Baton Rouge, La.) prior to the study. Liposuction aspirates from subcutaneous adipose tissue sites were obtained from female subjects undergoing elective procedures in local plastic surgical offices. Tissues were washed 3-4 times with phosphate-buffered saline (PBS) and suspended in an equal volume of PBS supplemented with 1% bovine serum and 0.1% collagenase type I (Worthington Biochemical Corporation, Lakewood, N.J.) prewarmed to 37° C. The tissue was then placed in a shaking water bath at 37° C. with continuous agitation for 60 min and centrifuged for 5 min at 300-500×g at room temperature. The supernatant, containing mature adipocytes, was aspirated. The pellet was identified as the stromal vascular fraction (SVF). Portions of the SVF were resuspended in cryopreservation medium (10% dimethylsulfoxide, 10% DMEM/F 12 Ham's, 80% fetal bovine serum), frozen at −80° C. in an ethanol-jacketed, closed container, and subsequently stored in liquid nitrogen. Portions of the SVF were used in colony forming unit assays (see below). The remaining cells of the SVF were suspended and plated immediately in T225 flasks in stromal medium (DMEM/F 12 Ham's, 10% fetal bovine serum (Hyclone, Logan, Utah), 100 U penicillin/100 μg streptomycin/0.25 μg Fungizone) at a density of 0.156 ml of tissue digest/sq cm of surface area for expansion and culture. This initial passage of the primary cell culture was referred to as “Passage 0” (P0). Following the first 48 hr of incubation at 37° C. at 5% CO2, the cultures were washed with PBS and maintained in Stromal Media until they achieved 75-90% confluence (approximately 6 days in culture). The cells were passaged by trypsin (0.05%) digestion and plated at a density of 5,000 cells/cm^2 (“Passage 1”). Cell viability and numbers at the time of passage were determined by trypan blue exclusion and hemacytometer cell counts. Cells were passaged repeatedly after achieving a density of 75-90% (approximately 6 days in culture) until Passage 2. […]
Quantitative Real-time RT-PCR (qRT-PCR) for Human ASCs: Total RNA was purified from the ASCs as described above for mouse tissues using TriReagent (Molecular Research Center) according to the manufacturer's specifications. […]

[4] = 1 μM for 2 hr, then serum free medium, four donors, FIG. 8B
[5] = undifferentiated ASCs, 2 hr exposure
[6] = adipocyte-differentiated vs undifferentiated ASCs

O=C1NC(=O)C(c2ccccc2[N+](=O)[O-])=C1Nc1ccc(O)c(Cl)c1 [SB415286]
effect on circadian cycle of gene expression [1]: shifted and lengthened | mRNA induction profile delayed and shifted (Bmal1, Per3, Rev-erb alpha) ([1]; vs serum-free media alone): 6 to 9 h

[Cl-].[Li+] [lithium chloride]
weight change under pharmacotherapy (bipolar patients): gain weight rapidly and become obese

C[C@@H]1C[C@H]2[C@@H]3CCC4=CC(=O)C=C[C@]4(C)[C@@]3(F)[C@@H](O)C[C@]2(C)[C@@]1(O)C(=O)CO [dexamethasone]
Bmal1 peak levels, first peak, time following induction [2, 4]: 16 to 20 h | Bmal1 peak levels, second peak, time following induction [2, 4]: 40 h | Per1, Per3, and Cry2 expression peaks, time after induction [2, 4]: 28 to 32 h | immediate-early induction of Per1, Per3, and Cry2 mRNAs, time after induction [2, 4]: 1 to 4 h | phase shift of Bmal1 relative to Per1, Per3, and Cry2 ([2]; 1 μM for 2 hr, four donors): 8 to 12 h | Rev-erbα peak levels, time post induction ([2]; 1 μM for 2 hr, four donors, FIG. 8B): 24 h | Rev-erbα and Rev-erbβ expression zenith, time [2, 5]: 24 h | Per 3 subsequent peak, time ([3]; adipocyte-differentiated ASCs, 2 hr exposure, three donors): 20 to 24 h | Rev-erbα and Rev-erbβ phase-advance relative to the undifferentiated ASCs [3, 6]: ~8 h

CN(CCOc1ccc(CC2SC(=O)NC2=O)cc1)c1ccccn1 (stereo not shown) [thiazolidinedione, rosiglitazone]
Per 3 immediate early response [2, 5]: Neither 30% serum nor thiazolidinedione initiated an immediate early response | Rev-erbα and Rev-erbβ expression zenith, time [2, 5]: 24 h | Per 3 peak expression earlier in adipocyte-differentiated than in undifferentiated ASCs [3, 6]: approximately 4 hr | Rev-erbα and Rev-erbβ phase-advance relative to the undifferentiated ASCs [3, 6]: ~8 h
